In patent US10945978B2, “Treatment and diagnosis of melanoma” (The Rockefeller University, priority 2012, dated 2021):
Counter-ions that a name gives are not always drawn.

Key:
[1] = test system: melanoma cells (MeWo, MeWo-LM2, HT-144, SK-Mel-334.2) and endothelial cells; experiment: In vitro cell proliferation, viability and serum starvation assays; assay type: cell-based, human; parameters: melanoma cell or endothelial cell in vitro proliferation: dose or concentration left out as unconfirmed; settings: for cell proliferation or cell viability rates: MeWo, HT-144, SK-Mel-334.2, 1 μM, 5 days
Description: To determine the effects of miR-199a or miR-1908 over-expression and combinatorial LNA-induced miRNA inhibition on cell proliferation, 2.5×10^4 cells were seeded in triplicate in 6-well plates, and viable cells were counted after 5 days. […] Viable cells were counted after 8, 24, 48, 72, and 120 hours.
The number of viable cells was counter after 8, 16, and 24 hours.
To determine the effects of GW3965, T0901317, and Bexarotene on in vitro cell growth, 2.5×10^4 melanoma cells were seeded in triplicate in 6-well plates and cultured in the presence of DMSO, GW3965, T0901317, or Bexarotene at 1 μM each. After 5 days, the number of viable and dead cells was counted using the trypan blue dye (72-57-1, Sigma-Aldrich), which selectively labels dead cells.

[2] = test system: MeWo, MeWo-LM2, HT-144, SK-Mel-2 and SK-Mel-334.2 human melanoma cells; experiment: Trans-well matrigel cell invasion assay, melanoma cells; assay type: cell-based; settings: for ability of melanoma cells to invade through matrigel: MeWo, HT-144, SK-Mel-2, SK-Mel-334.2, 1 μM for 72 hours
Description: Cancer cells were serum-starved in 0.2% FBS DMEM-based media for 12 hours. Trans-well invasion chambers (354480, BD Biosciences, Bedford, Mass.) were pre-equilibrated prior to beginning the assay by adding 0.5 mL of starvation media to the top and bottom chambers. After 30 minutes, the media in the top chamber was removed, and 0.5 mL of media containing 1×10^5 cancer cells was added into each matrigel-coated trans-well insert and incubated at 37° C. for 24 hours. For neutralization antibody and/or recombinant protein experiments, antibody/recombinant protein was added to each well at the start of the assay at the following concentrations as indicated in the figures: 5-40 μg/mL anti-ApoE 1D7 (Heart Institute, University of Ottawa), 5-40 μg/mL anti-IgG (AB-108-C, R&D Systems, Minneapolis, Minn.), 100 μM recombinant human ApoE3 (4696, BioVision, Mountain View, Calif.), and 100 μM BSA (A2153, Sigma-Aldrich). Upon completion of the assay, matrigel-coated inserts were washed with PBS, the cells at the top side of each insert were scraped off, and the inserts were fixed in 4% paraformaldehyde for 15 minutes. The inserts were then cut out and mounted onto slides using VectaShield mounting medium containing DAPI (H-1000, Vector Laboratories, Burlingame, Calif.). The basal side of each insert was imaged using an inverted fluorescence microscope (Zeiss Axiovert 40 CFL) at 5× magnification, taking three representative images for each insert. The number of invaded cells was quantified using ImageJ (NIH).
The cell invasion assay was performed as previously described in detail (Pencheva et al., 2012) using a trans-well matrigel invasion chamber system (354480, BD Biosciences). In brief, various melanoma cells were cultured in the presence of DMSO, GW3965, T0901317, or Bexarotene at 1 μM for 56 hours, after which melanoma cells were switched to starvation media (0.2% FBS) for 16 hours in the presence of each drug. Following starvation, cells were seeded into matrigel-coated trans-well inserts, and the invasion assay was allowed to proceed for 24 hours at 37° C. For ApoE antibody neutralization experiments, 40 μg/mL 1D7 anti-ApoE blocking antibody (Heart Institute, University of Ottawa, Ottawa, Canada) or 40 t g/mL anti-IgG control antibody (AB-108-C, R&D Systems, Minneapolis, Minn.) was added to each trans-well insert at the start of the assay.
The cells were then serum starved for 16 hours in 0.2% FBS media in the presence of each corresponding drug or DMSO. Following serum starvation, the cells were subjected to the trans-well invasion assay using a matrigel invasion chamber system (354480, BD Biosciences). Invasion chambers were pre-equilibrated prior to the assay by adding 0.5 mL of starvation media to the top and bottom wells. Meanwhile, cancer cells were trypsinized and viable cells were counted using trypan blue. Cancer cells were then resuspended at a concentration of 2×10^5 cells/1 mL starvation media, and 0.5 mL of cell suspension, containing 1×10^5 cells, was seeded into each trans-well. The invasion assay was allowed to proceed for 24 hours at 37° C. […] Following fixation, the inserts were washed in PBS, cut out, and mounted onto slides using VectaShield mounting medium containing DAPI nuclear stain (H-1000, Vector Laboratories). The basal side of each insert was imaged using an inverted fluorescence microscope (Zeiss Axiovert 40 CFL) at 5× magnification, and the number of DAPI-positive cells was quantified using ImageJ.

Compound | cell proliferation or cell viability rates [1] | tumor cell invasion ([2]; MeWo cells pre-treated 48 hours) | ability of melanoma cells to invade through matrigel [2] | melanoma cell or endothelial cell in vitro proliferation ([1]; MeWo-LM2 cells or endothelial cells, ApoE) | survival in serum starvation conditions ([1]; MeWo-LM2 cells or endothelial cells, ApoE, 0.2% FBS) | invasion ([2]; metastatic LM2 cells, recombinant ApoE3 100 μM vs BSA)
O=C(O)Cc1cccc(OCCCN(Cc2cccc(C(F)(F)F)c2Cl)CC(c2ccccc2)c2ccccc2)c1 [GW3965 2, 3-[3-[N-(2-Chloro-3-trifluoromethylbenzyl)-(2,2-diphenylethyl)amino]propyloxy] phenylacetic acid hydrochloride] | did not affect | decreased | consistently suppressed |  |  | 
O=S(=O)(c1ccccc1)N(CC(F)(F)F)c1ccc(C(O)(C(F)(F)F)C(F)(F)F)cc1 [T0901317 1] | did not affect |  | consistently suppressed |  |  | 
recombinant human ApoE: recombinant human ApoE3 (4696, BioVision) |  |  |  | did not affect | did not affect | significantly suppressed
